According to US20260021103A1, “IKZF2 AND CK1-ALPHA DEGRADING COMPOUNDS AND USES THEREOF” (President and Fellows of Harvard College, priority 2022, published 2026):

What was measured:
Assay type in all cases: cell-based
Conditions in all cases: 24 h, HEK293T GFP reporter
IKZF1 = molecular target: T1, IKZF1 (Homo sapiens, UniProt Q13422+Q96SW2); assay: Flow cytometry for measuring degradation, HEK293T GFP-POI reporter cells (IKZF1)
T1 construct: expressed in transfected cells; host or cells: HEK293T (lentiviral transduction, puromycin selection, FACS sorting)
T1 sequence (Q13422 whole entry): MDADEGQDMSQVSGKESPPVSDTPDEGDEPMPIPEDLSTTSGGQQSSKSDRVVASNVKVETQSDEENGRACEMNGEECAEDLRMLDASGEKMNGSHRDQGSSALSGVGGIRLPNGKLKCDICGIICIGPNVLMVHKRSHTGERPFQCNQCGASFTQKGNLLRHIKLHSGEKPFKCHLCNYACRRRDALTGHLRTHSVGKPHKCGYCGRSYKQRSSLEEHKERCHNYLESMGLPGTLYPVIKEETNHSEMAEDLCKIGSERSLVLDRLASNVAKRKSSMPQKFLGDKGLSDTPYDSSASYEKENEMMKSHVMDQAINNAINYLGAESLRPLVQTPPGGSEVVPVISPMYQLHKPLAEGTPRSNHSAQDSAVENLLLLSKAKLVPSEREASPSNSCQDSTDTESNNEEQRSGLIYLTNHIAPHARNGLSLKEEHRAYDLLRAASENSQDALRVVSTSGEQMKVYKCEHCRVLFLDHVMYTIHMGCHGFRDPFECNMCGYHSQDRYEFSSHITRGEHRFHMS
T1 sequence (Q96SW2 whole entry): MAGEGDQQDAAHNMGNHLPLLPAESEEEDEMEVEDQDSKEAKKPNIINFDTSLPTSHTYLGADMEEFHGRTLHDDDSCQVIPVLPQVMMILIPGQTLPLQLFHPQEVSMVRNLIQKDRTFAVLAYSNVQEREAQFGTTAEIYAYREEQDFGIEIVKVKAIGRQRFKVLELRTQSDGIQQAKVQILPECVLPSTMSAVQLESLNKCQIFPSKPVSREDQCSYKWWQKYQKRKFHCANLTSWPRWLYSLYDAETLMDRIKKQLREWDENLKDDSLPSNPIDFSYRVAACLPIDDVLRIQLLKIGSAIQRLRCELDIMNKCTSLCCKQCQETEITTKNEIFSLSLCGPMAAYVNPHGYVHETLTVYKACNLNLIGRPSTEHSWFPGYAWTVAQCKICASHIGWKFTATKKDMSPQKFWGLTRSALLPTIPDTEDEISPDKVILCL
T1 sequence (Q16531 whole entry partner): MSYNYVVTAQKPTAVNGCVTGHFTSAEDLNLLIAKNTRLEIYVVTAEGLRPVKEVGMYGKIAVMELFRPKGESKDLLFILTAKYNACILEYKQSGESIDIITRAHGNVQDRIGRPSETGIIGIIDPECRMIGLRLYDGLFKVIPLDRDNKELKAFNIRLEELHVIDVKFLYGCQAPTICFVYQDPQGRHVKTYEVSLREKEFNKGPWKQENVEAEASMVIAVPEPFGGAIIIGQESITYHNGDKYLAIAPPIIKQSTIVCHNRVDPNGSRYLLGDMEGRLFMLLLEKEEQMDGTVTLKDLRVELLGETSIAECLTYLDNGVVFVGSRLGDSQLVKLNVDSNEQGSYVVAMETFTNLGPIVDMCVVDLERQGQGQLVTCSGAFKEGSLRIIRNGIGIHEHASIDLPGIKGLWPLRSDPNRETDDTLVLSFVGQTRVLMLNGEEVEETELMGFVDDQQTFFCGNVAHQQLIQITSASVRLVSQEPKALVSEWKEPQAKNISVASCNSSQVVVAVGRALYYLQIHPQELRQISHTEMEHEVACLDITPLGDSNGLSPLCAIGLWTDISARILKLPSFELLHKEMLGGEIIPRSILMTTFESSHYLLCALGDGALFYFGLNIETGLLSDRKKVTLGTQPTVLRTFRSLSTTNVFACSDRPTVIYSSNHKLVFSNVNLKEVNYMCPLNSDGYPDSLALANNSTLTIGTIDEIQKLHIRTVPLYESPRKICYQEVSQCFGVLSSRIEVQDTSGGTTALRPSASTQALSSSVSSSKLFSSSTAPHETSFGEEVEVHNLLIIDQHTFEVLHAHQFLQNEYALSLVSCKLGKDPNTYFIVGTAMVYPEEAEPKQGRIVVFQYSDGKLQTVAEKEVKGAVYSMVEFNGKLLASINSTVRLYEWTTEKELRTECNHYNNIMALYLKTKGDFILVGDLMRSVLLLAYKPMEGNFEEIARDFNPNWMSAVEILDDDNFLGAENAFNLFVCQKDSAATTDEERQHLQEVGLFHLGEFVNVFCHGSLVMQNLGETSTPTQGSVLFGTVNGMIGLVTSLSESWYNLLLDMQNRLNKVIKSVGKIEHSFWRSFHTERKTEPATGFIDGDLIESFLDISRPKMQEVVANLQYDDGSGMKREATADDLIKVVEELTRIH

IKZF2 = molecular target: T2, IKZF2 (Homo sapiens, UniProt Q96SW2+Q9UKS7); assay: Flow cytometry for measuring degradation, HEK293T GFP-POI reporter cells (IKZF2)
T2 construct: expressed in transfected cells; host or cells: HEK293T (lentiviral transduction, puromycin selection, FACS sorting)
T2 sequence (Q9UKS7 whole entry): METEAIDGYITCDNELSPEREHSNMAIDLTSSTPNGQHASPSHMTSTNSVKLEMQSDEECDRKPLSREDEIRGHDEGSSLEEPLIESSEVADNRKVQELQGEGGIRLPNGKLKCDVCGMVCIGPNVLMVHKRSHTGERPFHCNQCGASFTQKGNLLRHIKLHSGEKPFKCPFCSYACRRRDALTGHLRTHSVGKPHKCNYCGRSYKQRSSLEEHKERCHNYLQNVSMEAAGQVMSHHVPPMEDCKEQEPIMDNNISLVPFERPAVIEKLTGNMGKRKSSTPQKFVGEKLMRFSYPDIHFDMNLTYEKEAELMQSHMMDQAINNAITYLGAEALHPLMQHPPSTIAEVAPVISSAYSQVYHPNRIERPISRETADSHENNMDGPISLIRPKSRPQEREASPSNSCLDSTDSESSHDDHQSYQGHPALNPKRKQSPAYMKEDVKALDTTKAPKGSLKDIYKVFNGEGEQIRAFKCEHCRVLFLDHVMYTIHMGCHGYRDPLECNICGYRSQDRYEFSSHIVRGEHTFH
T2 sequence (Q96SW2 whole entry): as the sequence (Q96SW2 whole entry) above
T2 sequence (Q16531 whole entry partner): as the sequence (Q16531 whole entry partner) above

CK1α = molecular target: T3, CK1α (Homo sapiens, UniProt P48729+Q96SW2); assay: Flow cytometry for measuring degradation, HEK293T GFP-POI reporter cells (CK1α)
T3 construct: expressed in transfected cells; host or cells: HEK293T (lentiviral transduction, puromycin selection, FACS sorting)
T3 sequence (P48729 whole entry): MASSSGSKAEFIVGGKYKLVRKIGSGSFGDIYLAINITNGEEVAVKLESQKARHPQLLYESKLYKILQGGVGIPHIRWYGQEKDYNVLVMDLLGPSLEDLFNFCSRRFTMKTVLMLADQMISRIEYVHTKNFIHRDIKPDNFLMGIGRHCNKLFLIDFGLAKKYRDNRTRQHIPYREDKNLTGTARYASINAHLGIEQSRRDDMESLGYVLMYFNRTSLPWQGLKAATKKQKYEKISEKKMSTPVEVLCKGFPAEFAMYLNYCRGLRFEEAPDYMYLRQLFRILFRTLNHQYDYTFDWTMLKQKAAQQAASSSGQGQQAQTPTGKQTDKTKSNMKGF
T3 sequence (Q96SW2 whole entry): as the sequence (Q96SW2 whole entry) above
T3 sequence (Q16531 whole entry partner): as the sequence (Q16531 whole entry partner) above

GSPT1 = GSPT1 (Homo sapiens, UniProt P15170+Q96SW2); assay: Flow cytometry for measuring degradation, HEK293T GFP-POI reporter cells (GSPT1); parameters: expressed in transfected cells; host or cells: HEK293T
Sequence of GSPT1 (P15170 whole entry): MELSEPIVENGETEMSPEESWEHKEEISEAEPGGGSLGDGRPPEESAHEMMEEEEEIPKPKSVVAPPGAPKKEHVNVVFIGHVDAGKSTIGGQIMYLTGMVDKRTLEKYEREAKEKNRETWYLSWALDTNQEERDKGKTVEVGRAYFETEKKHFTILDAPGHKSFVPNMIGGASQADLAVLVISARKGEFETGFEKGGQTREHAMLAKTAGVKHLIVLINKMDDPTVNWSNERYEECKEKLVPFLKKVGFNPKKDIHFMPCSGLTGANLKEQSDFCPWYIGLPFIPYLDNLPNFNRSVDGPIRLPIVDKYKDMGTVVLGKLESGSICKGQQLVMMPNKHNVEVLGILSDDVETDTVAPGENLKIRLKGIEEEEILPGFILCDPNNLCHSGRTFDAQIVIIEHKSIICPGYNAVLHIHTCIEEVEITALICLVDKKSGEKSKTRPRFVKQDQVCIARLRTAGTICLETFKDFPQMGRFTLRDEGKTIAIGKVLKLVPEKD
Sequence of GSPT1 (Q96SW2 whole entry): as the sequence (Q96SW2 whole entry) above
Sequence of GSPT1 (Q16531 whole entry partner): as the sequence (Q16531 whole entry partner) above

Row | Structure (SMILES) | IKZF1% degradation at 100 nM (IKZF1) [%] | IKZF1% degradation at 1 μM (IKZF1) [%] | IKZF2% degradation at 100 nM (IKZF2) [%] | IKZF2% degradation at 1 μM (IKZF2) [%] | CK1α % degradation at 100 nM (CK1α) [%] | CK1α % degradation at 1 μM (CK1α) [%] | GSPT1% degradation at 100 nM (GSPT1) [%] | GSPT1% degradation at 1 μM (GSPT1) [%]
1 | O=C1CCC(N2Cc3cc(NC(=O)c4ccc5ncsc5c4)ccc3C2=O)C(=O)N1 (stereo not shown) [DEG-72, N-(2-(2,6-dioxopiperidin-3-yl)-1-oxoisoindolin-5-yl)benzo[d]thiazole-6-carboxamide] | 2.7 ± 1.2 | 6.5 ± 1.2 | 41.8 ± 2 | 82.5 ± 0.9 | 33.2 ± 3.2 | 54.5 ± 3.8 | −1.7 ± 3.4 | −0.9 ± 2.6
2 | O=C1CCC(N2Cc3cc(NC(=O)C4=Cc5cc(Br)cc(Br)c5OC4)ccc3C2=O)C(=O)N1 (stereo not shown) [DEG-86, 6,8-dibromo-N-(2-(2,6-dioxopiperidin-3-yl)-1-oxoisoindolin-5-yl)-2H-chromene-3-carboxamide] | 12.3 ± 0.9 | 22.6 ± 0.5 | 48.7 ± 1.1 | 62.6 ± 0.5 | 46.5 ± 2.5 | 54.7 ± 1.2 | 5.3 ± 2 | 9.2 ± 0.7
3 | COc1ccc(CCC(=O)Nc2ccc3c(c2)CN(C2CCC(=O)NC2=O)C3=O)cc1 (stereo not shown) [DEG-57] | 81.9 ± 0.7 | 92.5 ± 0.2 | 76.2 ± 0.4 | 88.6 ± 0.2 | 40.3 ± 11.2 | 54.1 ± 2.1 | 11.7 ± 1.3 | 9.9 ± 0.8
4 | COc1ccc(Oc2ccc(C(=O)Nc3ccc4c(c3)CN(C3CCC(=O)NC3=O)C4=O)cc2)cc1 (stereo not shown) [DEG-70, N-(2-(2,6-dioxopiperidin-3-yl)-1-oxoisoindolin-5-yl)-4-(4-methoxyphenoxy)benzamide] | 6.5 ± 1.4 | 16.2 ± 0.6 | 53.6 ± 0.6 | 84.5 ± 0.3 | 44.9 ± 3.4 | 55.8 ± 5.6 | 4.3 ± 1.1 | 4.8 ± 0.4
5 | COc1cccc2c1C=C(C(=O)Nc1ccc3c(c1)CN(C1CCC(=O)NC1=O)C3=O)CO2 (stereo not shown) [DEG-79, N-(2-(2,6-dioxopiperidin-3-yl)-1-oxoisoindolin-5-yl)-5-methoxy-2H-chromene-3-carboxamide] | 39.4 ± 0.8 | 70.3 ± 0.2 | 74.6 ± 0.3 | 93 ± 0.1 | 59.4 ± 1 | 38.1 ± 3.4 | 24 ± 1 | 44.3 ± 1.3
6 | O=C1CCC(N2Cc3cc(NC(=O)c4ccc5occc5c4)ccc3C2=O)C(=O)N1 (stereo not shown) [DEG-62, N-(2-(2,6-dioxopiperidin-3-yl)-1-oxoisoindolin-5-yl)benzofuran-5-carboxamide] | 6.4 ± 0.3 | 22.3 ± 0.5 | 61.1 ± 0.5 | 90.6 ± 0.1 | 50.2 ± 1.7 | 64.7 ± 0.4 | 2 ± 2.1 | 4.4 ± 1.9
7 | Cc1ccc2c(c1)OCC(C(=O)Nc1ccc3c(c1)CN(C1CCC(=O)NC1=O)C3=O)=C2 (stereo not shown) [DEG-80, N-(2-(2,6-dioxopiperidin-3-yl)-1-oxoisoindolin-5-yl)-7-methyl-2H-chromene-3-carboxamide] | 8.6 ± 0.1 | 24 ± 0.1 | 72.6 ± 0.9 | 91.5 ± 0.2 | 63.5 ± 1.5 | 66.9 ± 1.1 | 14.3 ± 2.1 | 28 ± 0.8
8 | COc1cc(C(=O)Nc2ccc3c(c2)CN(C2CCC(=O)NC2=O)C3=O)ccc1Oc1ccccc1 (stereo not shown) [DEG-76, N-(2-(2,6-dioxopiperidin-3-yl)-1-oxoisoindolin-5-yl)-3-methoxy-4-phenoxybenzamide] | 8.7 ± 1.8 | 17.2 ± 1.2 | 81.8 ± 0.4 | 92.8 ± 0 | 64.1 ± 0.8 | 69.9 ± 0.5 | 12.1 ± 0.5 | 21.3 ± 1.7
9 | O=C1CCC(N2Cc3cc(NC(=O)C4=Cc5ccc(Br)cc5OC4)ccc3C2=O)C(=O)N1 (stereo not shown) [DEG-83, 7-bromo-N-(2-(2,6-dioxopiperidin-3-yl)-1-oxoisoindolin-5-yl)-2H-chromene-3-carboxamide] | 12.9 ± 1 | 47.5 ± 0.2 | 80.4 ± 0.5 | 94.4 ± 0.2 | 61.9 ± 0.4 | 30.2 ± 2.3 | 21.8 ± 2.3 | 49 ± 0.8
10 | O=C1CCC(N2Cc3cc(NC(=O)C4=COc5ccccc5O4)ccc3C2=O)C(=O)N1 (stereo not shown) [DEG-63, N-(2-(2,6-dioxopiperidin-3-yl)-1-oxoisoindolin-5-yl)benzo[b][1,4]dioxine-2-carboxamide] | 13.4 ± 0.7 | 35.2 ± 0.6 | 70.8 ± 0.6 | 90.7 ± 0.2 | 46.4 ± 1.4 | 60.3 ± 1.2 | −0.1 ± 1.2 | 1.2 ± 0.3
11 | O=C1CCC(N2Cc3cc(NC(=O)c4ccc5c(c4)OCCO5)ccc3C2=O)C(=O)N1 (stereo not shown) [DEG-53, N-(2-(2,6-dioxopiperidin-3-yl)-1-oxoisoindolin-5-yl)-2,3-dihydrobenzo[b]dioxine-6-carboxamide] | 9.3 ± 0.8 | 8.8 ± 1.6 | 38.5 ± 0.2 | 76.5 ± 0.7 | 36.2 ± 4.5 | 55.4 ± 3.9 | 5 ± 1.4 | 2.4 ± 0.9
12 | COc1ccc2c(c1)OCC(C(=O)Nc1ccc3c(c1)CN(C1CCC(=O)NC1=O)C3=O)=C2 (stereo not shown) [DEG-74, N-(2-(2,6-dioxopiperidin-3-yl)-1-oxoisoindolin-5-yl)-7-methoxy-2H-chromene-3-carboxamide] | 4.3 ± 0.5 | 32.5 ± 0.4 | 57.1 ± 1.1 | 96 ± 0 | 59.5 ± 1.1 | 64.8 ± 0.6 | 9 ± 2.6 | 37.5 ± 2.1
13 | O=C1CCC(N2Cc3cc(NC(=O)C4=Cc5ccc(C(F)(F)F)cc5OC4)ccc3C2=O)C(=O)N1 (stereo not shown) [DEG-81, N-(2-(2,6-dioxopiperidin-3-yl)-1-oxoisoindolin-5-yl)-7-(trifluoromethyl)-2H-chromene-3-carboxamide] | 8 ± 0.5 | 17.4 ± 3.3 | 75.1 ± 0.5 | 91.8 ± 0.1 | 66.3 ± 2 | 72 ± 0.3 | 2.8 ± 0.8 | 11.9 ± 1.9
14 | COc1ccc2c(CC(=O)Nc3ccc4c(c3)CN(C3CCC(=O)NC3=O)C4=O)cccc2c1 (stereo not shown) [DEG-58, N-(2-(2,6-dioxopipperidin-3-yl)-1-oxoisoindolin-5-yl)-2-(6-methoxynaphthalen-1-yl)acetamide] | 97.7 ± 0.1 | 98.4 ± 0 | 93 ± 0.2 | 95.8 ± 0.1 | 63.4 ± 0.6 | 57 ± 0.1 | 29 ± 1.9 | 41.9 ± 0.8
15 | COc1ccc2cccc(CC(=O)Nc3ccc4c(c3)CN(C3CCC(=O)NC3=O)C4=O)c2c1 (stereo not shown) [DEG-68, N-(2-(2,6-dioxopiperidin-3-yl)-1-oxoisoindolin-5-yl)-2-(7-methoxynaphthalen-1-yl)acetamide] | 96.9 ± 0.1 | 97.6 ± 0.1 | 92.2 ± 0.1 | 94.4 ± 0.1 | 59.7 ± 1.2 | 64.4 ± 1.6 | 16.6 ± 1.3 | 21.3 ± 1.8
16 | O=C1CCC(N2Cc3cc(NC(=O)c4ccc5c(c4)CCCC5)ccc3C2=O)C(=O)N1 (stereo not shown) [DEG-87, N-(2-(2,6-dioxopiperidin-3-yl)-1-oxoisoindolin-5-yl)-5,6,7,8-tetrahydronaphthalene-2-carboxamide] | 15.5 ± 1 | 27.2 ± 0.7 | 74 ± 0.5 | 89.1 ± 0.4 | 51.1 ± 1.2 | 56.9 ± 0.8 | 1.2 ± 2.5 | 4 ± 0.6
17 | COc1ccc(Oc2cccc(C(=O)Nc3ccc4c(c3)CN(C3CCC(=O)NC3=O)C4=O)c2)cc1 (stereo not shown) [DEG-69, N-(2-(2,6-dioxopiperidin-3-yl)-1-oxoisoindolin-5-yl)-3-(4-methoxyphenoxy)benzamide] | 98.6 ± 0.1 | 98.6 ± 0.1 | 89.5 ± 0.1 | 93.2 ± 0.7 | 64.8 ± 0.3 | 65.5 ± 2.3 | 12.5 ± 1.2 | 16.8 ± 1.9
